No end group written: not given here.
Test system: caspases-3, -8, -9, and -2
Experiment: Caspase activity, ApoAlert Caspase profiling plate, MDA-MB-468 sublines
Type: cell-based, human
Conditions: for caspase-3 activation in EGFP-peptide-expressing cells: MDA-MB-468 sublines vs EGFP vector subline, Figure 7E,F
Source text: Our next objective was to analyze the biological significance of the CARP-1–H2AX interaction in cells. For this purpose, we utilized MDA-MB-468 and HeLa cell lines that stably express myc-His-tagged wild-type CARP-1 or CARP-1 (Δ600–650)-myc-His proteins as detailed in Figure S4 (Supplementary Materials). These sublines were then either untreated (Control, DMSO), or treated with Adriamycin or CFM-4 compound. […] Next, we measured activation of caspases as an apoptosis readout in cells expressing myc-His-tagged wild-type CARP-1 or CARP-1 (Δ600–650) proteins that were either untreated or treated with Adriamycin or CFM compounds as detailed in Section 2. We utilized a lower, 4–5 μM dose of Adriamycin or CFM compounds because a 10 μM Adriamycin dose caused interference in signal output/readout in this particular assay, likely due to background fluorescence that is emitted by higher dose of Adriamycin. Although Adriamycin has a maximum excitation and emission wavelength of 470 and 560 nm, respectively, we found significant fluorescence emission in cells treated with 10 μM Adriamycin at a 380-nm excitation wavelength. Moreover, since caspase activation precedes apoptotic cell death, we utilized a lower dose of Adriamycin to permit a robust measurement of optimal caspase activation in cells undergoing moderate apoptosis with lower/minimal interference by Adriamycin-induced fluorescence signals. […] MDA-MB-468 or HeLa cells that express EGFP or EGFP-H2AX (1–35) were separately treated with Adriamycin, and presence of CARP-1 and γH2AX was determined by immuno-cytochemical staining followed by photography by a confocal microscope as described in Section 2. […]
Figure 7 Disruption of H2AX interaction with CARP-1 results in enhanced viabilities of CFM-4-, CFM-4.16-, or Adriamycin-treated cells in part due to reduced apoptosis. […] The fluorescence released from the activated caspase-dependent cleavage of respective substrate was detected by a plate reader at the excitation and emission wavelengths of 380 nm and 460 nm, respectively, as detailed in Section 2. […]

| Compound | caspase activation in CARP-1 (Δ600–650) cells (4–5 μM, CARP-1 (Δ600–650) vs wild-type CARP-1-expressing cells, mean of two experiments, 380/460 nm) | caspase-3 activation in EGFP-peptide-expressing cells |
| --- | --- | --- |
| COc1cccc2c1C(=O)c1c(O)c3c(c(O)c1C2=O)C[C@@](O)(C(=O)CO)C[C@@H]3O[C@H]1C[C@H](N)[C@H](O)[C@H](C)O1 [Adriamycin, doxorubicin, reference compound] | overall reduction in activation of caspases-3, -8, -9, and -2 | – |
| EGFP-CARP-1 (636–650): EGFP-tagged fusion protein stably expressed in MDA-MB-468 and HeLa sublines (PKTMKVNDLRKELES; also: EGFP fusion kept, end not given here) | – | overall reduction in activation of caspase-3 |
| EGFP-H2AX (1–35): EGFP-tagged fusion protein stably expressed in MDA-MB-468 and HeLa sublines (MSGRGKTGGKARAKAKSRSSRAGLQFPVGRVHRLL; also: EGFP fusion, end not given here; UniProt P16104 1-35, looked up, fragment) | – | overall reduction in activation of caspase-3 |
